Reference: patent publication US4521537A, “Spiro[2H-1,4-benzodioxepin-3(5H)4'-piperidine and -3'-pyrrolidine] compounds and their use as antihypertensive agents” (Hoechst-Roussel Pharmaceuticals Incorporated, priority 1984, dated 1985)
Where a name gives a salt, the structure may show the parent alone. Read-outs that look alike come from different tables or passages of the source.

Legend:
[1] = tested on: spontaneous hypertensive rat; assay: antihypertensive activity, spontaneous hypertensive rat (SHR) test, indirect tail cuff method; format: in vivo
Description: Compounds of this invention are useful as antihypertensive agents due to their ability to depress blood pressure in mammals. Antihypertensive activity is measured in the spontaneous hypertensive rat by the indirect tail cuff method described by A. Schwartz, Ed., Methods in Pharmacology, Vol. page 135, Appleton Century Crafts, New York (1971). […] The drop in blood pressure is measured on the third day following administration. The antihypertensive activity is expressed as mm Hg decrease in mean arterial blood pressure.

[2] = tested on: mice; assay: phenylquinone-induced writhing test in mice (PQW), analgesia; format: in vivo, male, CD-1 mice; details: Mus musculus, read-out: PQW % (percent inhibition of writhing)
Description: Compounds of this invention produce analgesia when administered to mammals. A phenylquinone-induced writhing test in mice (PQW) was used as an assay to detect analgesia. The procedure employed was a modification of Siegmund, E., Cadmus, R. and Lu, G: Proc. Soc. Exptl. Bio. Med., 95: 729 (1957). 12.5 mg of phenyl-p-benzoquinone were dissolved in 5 ml of 95% ethanol and q.s. to 100 ml with distilled water and administered to mice (10 ml/kg, i.p.). This produces a characteristic "writhe" which is defined as an inward rotation of one or more feet with twisting and turning of the trunk, drawing in of the abdominal wall, lordosis and arching of the back.
A total of 28 male, CD-1 mice (18 to 30 grams) were employed for a time response. Animals recived food and water ad libitum. Drugs to be tested were prepared with distilled water and, if insoluble, one drop of a suitable surfactant was added.
Twenty animals (5/group) were administered the drug 15, 30, 45 and 60 minutes prior to phenylquinone injections. Control animals (2/group) received an equal amount of vehicle. After the administration of phenylquinone the mice were placed separately into one-liter beakers and 5 minutes were allowed to lapse. The mice were then observed for a period of 10 minutes and the number of writhes were recorded for each animal. The formula for computing percent inhibition is: [formula]
The time period with the greatest percent of inhibition is considered the peak time.
A dose range is run in the same fashion as a time response except 10 animals per group were tested at the peak time of drug activity. Fifty animals, 4 drug groups, and a vehicle control were employed. Animals were dosed and tested in a randomized manner. An estimated ED50 was calculated by a computer linear regression analysis.

[3] = Table I, 50 mg/kg PO, three days
[4] = Table I, 3 mg/kg PO, three days
[5] = Table I, 10 mg/kg PO, three days

Question: For `CC1Oc2ccccc2COC12CCN(CCCC(c1ccc(F)cc1)c1ccc(F)cc1)CC2` (centres unmarked) [Example 8, 1'-[4,4-Bis-(4-fluorophenyl)butyl]-2-methylspiro[2H-1,4-benzodioxepin-3(5H)4'-piperidine]oxalate], which “SHR mm Hg (decrease in mean arterial blood pressure)” value [1, 3] is on record?
Answer: Its value is -102 mm Hg.

Question: With `CC1Oc2ccccc2COC12CCN(CCCC1(c3ccc(F)cc3)OCCO1)CC2` (centres unmarked) [Example 9, 2-Methyl-1'-[3-[2-(4-fluorophenyl)-1,3-dioxolan-2yl]propyl]spiro[2H-1,4-benzodioxepin-3(5H)4'-piperidine]maleate] as the molecule, how does the “SHR mm Hg (decrease in mean arterial blood pressure)” value [1, 3] read?
Answer: Its value is -34 mm Hg.

Question: Which “SHR mm Hg (decrease in mean arterial blood pressure)” value [1, 3] does the source give for `CC1Oc2ccccc2COC12CCN(CCC=C(c1ccc(F)cc1)c1ccc(F)cc1)CC2` (centres unmarked) [Example 10, 1'-[4,4-Bis(4-fluorophenyl)-3-butenyl]-2-methylspiro[2H-1,4-benzodioxepin-3(5H)4'-piperidine]maleate] here?
Answer: Its value is -18 mm Hg.

Question: Which “SHR mm Hg (decrease in mean arterial blood pressure)” value [1, 3] does the source give for `CC1Oc2ccccc2COC12CCN(CCCC(c1ccccc1)c1ccccc1)CC2` (centres unmarked) [Example 11, 1'-(4,4-Diphenylbutyl)-2-methylspiro[2H-1,4-benzodioxepin-3(5H)4'-piperidine]oxalate] here?
Answer: Its value is -17 mm Hg.

Question: With `CC1Oc2ccccc2COC12CCN(CCC=C(c1ccccc1)c1ccccc1)CC2` (centres unmarked) [Example 12, 1'-[4,4-Diphenyl-3-butenyl]-2-methylspiro[2H-1,4-benzodioxepin-3(5H)4'-piperidine]maleate] as the molecule, how does the “SHR mm Hg (decrease in mean arterial blood pressure)” value [1, 3] read?
Answer: The value was -20 mm Hg.

Question: `CC1Oc2ccccc2COC12CCN(CCCCc1ccc(F)cc1)CC2` (centres unmarked) [Example 14, 1'-[4-(4-Fluorophenyl)butyl]-2-methylspiro[2H-1,4-benzodioxepin-3(5H)4'-piperidine]hydrochloride] was tested. Which “SHR mm Hg (decrease in mean arterial blood pressure)” value [1, 3] did it give?
Answer: The value was -34 mm Hg.

Question: For `CC1Oc2ccccc2COC12CCN(CCCC(c1ccc(Cl)cc1)c1ccc(Cl)cc1)CC2` (centres unmarked) [Example 15, 1'-[4,4-Bis(4-chlorophenyl)butyl]-2-methylspiro[2H-1,4-benzodioxepin-3(5H)4'-piperidine]oxalate], which “SHR mm Hg (decrease in mean arterial blood pressure)” value [1, 3] is on record?
Answer: Its value is -27 mm Hg.

Question: For `CC1Oc2ccc(Cl)cc2COC12CCN(CCC=C(c1ccccc1)c1ccccc1)CC2` (centres unmarked) [Example 16, 1'-[4,4-Diphenyl-3-butenyl]-7-chloro-2-methylspiro[2H-1,4-benzodioxepin-3(5H)4'-piperidine]oxalate], which “SHR mm Hg (decrease in mean arterial blood pressure)” value [1, 3] is on record?
Answer: The value was -47 mm Hg.

Question: Which results are given for `CC1Oc2ccc(Cl)cc2COC12CCN(CCCC(c1ccccc1)c1ccccc1)CC2` (centres unmarked) [Example 17, 1'-[4,4-Diphenylbutyl]-7-chloro-2-methylspiro[2H-1,4-benzodioxepin-3(5H)4'-piperidine]oxalate]?
Answer: SHR mm Hg (decrease in mean arterial blood pressure) [1, 4]: -23 mm Hg; SHR mm Hg (decrease in mean arterial blood pressure) [1, 3]: -84 mm Hg

Question: With `CC1Oc2ccc(Cl)cc2COC12CCN(CCCC(c1ccc(F)cc1)c1ccc(F)cc1)CC2` (centres unmarked) [Example 18, 1'-[4,4-Bis(4-fluorophenyl)butyl]-7-chloro-2-methylspiro[2H-1,4-benzodioxepin-3(5H)4'-piperidine]oxalate] as the molecule, how does the “SHR mm Hg (decrease in mean arterial blood pressure)” value ([1]; Table I, 0.3 mg/kg PO, three days) read?
Answer: Its value is -41 mm Hg.

Question: `CC1Oc2ccc(Cl)cc2COC12CCN(CCC=C(c1ccc(F)cc1)c1ccc(F)cc1)CC2` (centres unmarked) [Example 19, 1'-[4,4-Bis(4-fluorophenyl)-3-butenyl]-7-chloro-2-methylspiro[2H-1,4-benzodioxepin-3(5H)4'-piperidine]oxalate] was tested. Which “SHR mm Hg (decrease in mean arterial blood pressure)” value [1, 5] did it give?
Answer: The value was -43 mm Hg.

Question: How did the “SHR mm Hg (decrease in mean arterial blood pressure)” value [1, 3] turn out when `CC1Oc2ccc(Cl)cc2COC12CCN(CCC(c1ccccc1)c1ccccc1)CC2` (centres unmarked) [Example 20, 7-Chloro-2-methyl-1'-(3,3-diphenylpropyl)spiro[2H-1,4-benzodioxepin-3(5H)4'-piperidine]hydrochloride] was run?
Answer: Its value is -15 mm Hg.

Question: With `CC1Oc2ccc(Br)cc2COC12CCN(CCCC(c1ccc(F)cc1)c1ccc(F)cc1)CC2` (centres unmarked) [Example 21, 7-Bromo-1'-[4,4-bis(4-fluorophenyl)butyl]-2-methylspiro[2H-1,4-benzodioxepin-3(5H)4'-piperidine]oxalate] as the molecule, how does the “SHR mm Hg (decrease in mean arterial blood pressure)” value [1, 4] read?
Answer: Its value is -63 mm Hg.

Question: And the “SHR mm Hg (decrease in mean arterial blood pressure)” value ([1]; Table I, 5 mg/kg PO, three days)?
Answer: The value was -74 mm Hg.

Question: Which “SHR mm Hg (decrease in mean arterial blood pressure)” value [1, 5] does the source give for `CC1Oc2ccccc2COC12CCN(CCCC(O)c1ccc(F)cc1)CC2` (centres unmarked) [Example 23, 1'-[4-Hydroxy-4-(4-fluorophenyl)butyl]-2-methylspiro[2H-1,4-benzodioxepin-3(5H)4'-piperidine]] here?
Answer: Its value is -31 mm Hg.

Question: `CC1Oc2ccccc2COC12CCN(CCCC(Oc1ccc(F)cc1)c1ccc(F)cc1)CC2` (centres unmarked) [Example 24, 1'-[4-(4-Fluorophenoxy)-4-(4-fluorophenyl)butyl]-2-methylspiro[2H-1,4-benzodioxepin-3(5H)4'-piperidine]oxalate] was tested. Which “SHR mm Hg (decrease in mean arterial blood pressure)” value [1, 3] did it give?
Answer: Its value is -24 mm Hg.

Question: How did the “SHR mm Hg (decrease in mean arterial blood pressure)” value [1, 3] turn out when `CC1Oc2ccccc2COC12CCNCC2` (centres unmarked) [Example 36, 2-Methylspiro[2H-1,4-benzodioxepin-3(5H)4'-piperidine]oxalate] was run?
Answer: The value was -42 mm Hg.

Question: With `CC1Oc2ccc(F)cc2COC12CCN(CCCC(c1ccccc1)c1ccccc1)CC2` (centres unmarked) [Example 41, 1'-(4,4-Diphenylbutyl)-7-fluoro-2-methylspiro[2H-1,4-benzodioxepin-3(5H)4'-piperidine]hydrochloride] as the molecule, how does the “SHR mm Hg (decrease in mean arterial blood pressure)” value [1, 3] read?
Answer: Its value is -34 mm Hg.

Question: Which “SHR mm Hg (decrease in mean arterial blood pressure)” value [1, 3] does the source give for `CC1Oc2ccc(F)cc2COC12CCN(CCCC(c1ccc(F)cc1)c1ccc(F)cc1)CC2` (centres unmarked) [Example 42, 1'-[4,4-Bis(4-fluorophenyl)butyl]-7-fluoro-2-methylspiro[2H-1,4-benzodioxepin-3(5H)4'-piperidine]hydrochloride] here?
Answer: Its value is -126 mm Hg.

Question: Which change in vivo at 20 mg/kg ([2]; Table II, 20 mg/kg SC) does the source give for `CC1Oc2ccccc2COC12CCN(CCNC(=N)N)CC2` (centres unmarked) [Example 50, [2-(2-Methylspiro[2H-1,4-benzodioxepin-3(5H)4'-piperidin]-1'-yl)ethyl]-guanidine hemisulfate hemihydrate] here?
Answer: The change in vivo at 20 mg/kg was -8%.

Question: How did the change in vivo at 10 mg/kg ([2]; Table II, 10 mg/kg SC) turn out when `CC1Oc2ccccc2COC12CCN(CC1CC1)CC2` (centres unmarked) [Example 51, 1'-Cyclopropylmethyl-2-methylspiro[2H-1,4-benzodioxepin-3(5H)4'-piperidine]oxalate] was run?
Answer: Its change in vivo at 10 mg/kg is -61%.

Question: For `CCCCCN1CCC2(CC1)OCc1ccccc1OC2C` (centres unmarked) [Example 54, 2-Methyl-1'-pentylspiro[2H-1,4-benzodioxepin-3(5H)4'-piperidine]oxalate], which change in vivo at 20 mg/kg ([2]; Table II, 20 mg/kg SC) is on record?
Answer: The change in vivo at 20 mg/kg was -36%.

Question: Which change in vivo at 20 mg/kg ([2]; Table II, 20 mg/kg SC) does the source give for `CC1Oc2ccccc2COC12CCN(CCN(C)C)CC2` (centres unmarked) [Example 58, 1'-[2-(N,N-dimethylamino)ethyl]-2-methylspiro[2H-1,4-benzodioxepin-3(5H)4'-piperidine]dihydrochloride] here?
Answer: Its change in vivo at 20 mg/kg is -6%.

Question: For `CC1Oc2ccccc2COC12CCN(CCC(C#N)(c1ccccc1)c1ccccc1)CC2` (centres unmarked) [Example 61, 2-Methyl-1'-[3-cyano-3,3-diphenylpropyl]spiro[2H-1,4-benzodioxepin-3(5H)4'-piperidine]hydrochloride], which change in vivo at 20 mg/kg ([2]; sc) is on record?
Answer: The change in vivo at 20 mg/kg was -25%.

Question: Which change in vivo at 10 mg/kg ([2]; sc) does the source give for `CC1Oc2cc(Cl)ccc2COC12CCNCC2` (centres unmarked) [Example 65, 8-Chloro-2-methylspiro[2H-1,4-benzodioxepin-3(5H)4'-piperidine]oxalate] here?
Answer: Its change in vivo at 10 mg/kg is -98%.

Question: With `CC1Oc2cc(Cl)ccc2COC12CCN(CC#N)CC2` (centres unmarked) [Example 66, 8-Chloro-1'-cyanomethyl-2-methylspiro[2H-1,4-benzodioxepin-3(5H)4'-piperidine]] as the molecule, how does the change in vivo at 20 mg/kg ([2]; Table II, 20 mg/kg SC) read?
Answer: The change in vivo at 20 mg/kg was -9%.

Question: How did the change in vivo at 20 mg/kg ([2]; Table III, 20 mg/kg SC) turn out when `COC(=N)N1CCC2(CC1)OCc1ccccc1OC2C` (centres unmarked) [Example 69, 2-Methylspiro[2H-1,4-benzodioxepin-3(5H)4'-piperidine]-1'-carboximidic acid, methyl ester hydrochloride] was run?
Answer: The change in vivo at 20 mg/kg was -74%.

Question: Which change in vivo at 20 mg/kg ([2]; Table III, 20 mg/kg SC) does the source give for `CC(=O)N1CCC2(CC1)OCc1ccccc1OC2C` (centres unmarked) [Example 73, 1'-Acetyl-2-methylspiro[2H-1,4-benzodioxepin-3(5H)4'-piperidine]] here?
Answer: The change in vivo at 20 mg/kg was -27%.

Question: Which “SHR mm Hg (decrease in mean arterial blood pressure)” value ([1]; Table III, 3 mg/kg PO) does the source give for `CC1Oc2ccc([N+](=O)[O-])cc2COC12CCN(CCCC(c1ccc(F)cc1)c1ccc(F)cc1)CC2` (centres unmarked) [Example 83, 1'-[4,4-Bis(4-fluorophenyl)butyl]-2-methyl-7-nitrospiro[2H-1,4-benzodioxepin-3(5H)4'-piperidine]hydrochloride] here?
Answer: The value was -65 mm Hg.

Question: For `CC1Oc2ccc(Cl)cc2COC12CCN(CCCC(C1CCCCC1)C1CCCCC1)CC2` (centres unmarked) [Example 87, 1'-(4,4-Dicyclohexylbutyl)-7-chloro-2-methylspiro[2H-1,4-benzodioxepin-3(5H)4'-piperidine]hydrochloride], which “SHR mm Hg (decrease in mean arterial blood pressure)” value ([1]; Table III, 50 mg/kg PO) is on record?
Answer: The value was -69 mm Hg.

Question: For `C[C@](N)(Cc1ccc(O)c(O)c1)C(=O)O` [α-methyl dopa, reference compound], which SHR value ([1]; similar test, 50 mg/kg PO for five days) is on record?
Answer: Its SHR value is -40 mm Hg.
